Molecular target: TNFα trimer (Homo sapiens, UniProt P01375)
Experiment: TNFα FP Competitive Binding Assay
Details: FP binding assay; 20 nM TNFα trimer, 1 nM OregonGreen488 probe; read-out: TNF IC50
Outline: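 Compounds in 12-point 1:3 series, final top 100 μM (2.0% DMSO) or 338 μM (3.4% DMSO), displace 1 nM fluorescent probe from 20 nM TNFα trimer. After 18-24 h incubation plus 1 h rt equilibration, background-subtracted polarization measured and curves fitted with variable slope.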

Sequence of TNFα trimer (P01375 77-233 limits assumed): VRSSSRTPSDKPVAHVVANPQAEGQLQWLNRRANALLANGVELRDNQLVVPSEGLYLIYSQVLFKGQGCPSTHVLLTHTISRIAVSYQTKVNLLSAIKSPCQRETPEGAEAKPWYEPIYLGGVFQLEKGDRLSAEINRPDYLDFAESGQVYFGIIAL

IC50 [nM]	SMILES
< 1000	C[C@@H]1CN(c2ncc(-c3ccc4c(=O)n(C)n(Cc5cc(CC#N)ccc5OC(F)F)c4c3)cn2)CCN1C(=O)CO [Example 24.1]
< 1000	CN1C[C@H]2CN(c3ncc(-c4ccc5c(=O)n(C)n(Cc6ccccc6OC(F)F)c5c4)cn3)CCN2C1=O [Example 34, (R)-7-(5-(1-(2-(Difluoromethoxy)benzyl)-2-methyl-3-oxo-2,3-dihydro-1H-indazol-6-yl)pyrimidin-2-yl)-2-methylhexahydroimidazo[1,5-a]pyrazin-3(2H)-one]
< 1000	COc1c(-c2cnc(N3CCN(C(=O)CO)[C@H](C)C3)nc2)ccc2c(=O)n(C)n(Cc3ccccc3OC(F)F)c12 [Example 70, (R)-1-(2-(Difluoromethoxy)benzyl)-6-(2-(4-(2-hydroxyacetyl)-3-methylpiperazin-1-yl)pyrimidin-5-yl)-7-methoxy-2-methyl-1H-indazol-3(2H)-one]
< 1000	C[C@@H]1CN(C(=O)CO)CCN1c1ncc(-c2cc3c(cc2F)c(=O)n(C)n3Cc2ccccc2OC(F)F)cn1 [Example 126, (R)-1-(2-(Difluoromethoxy)benzyl)-5-fluoro-6-(2-(4-(2-hydroxyacetyl)-2-methylpiperazin-1-yl)pyrimidin-5-yl)-2-methyl-1H-indazol-3(2H)-one]
1000 to 10000	CN1CCC(Nc2ncc(-c3ccc4c(=O)n(C)n(Cc5cc(CO)ccc5OC(F)F)c4c3)cn2)C1=O (centres unmarked) [Example 16.2]
1000 to 10000	Cn1c(=O)c2ccc(-c3ccnc(OC4CCCOC4)c3)cc2n1Cc1ccccc1OC(F)F (centres unmarked) [Example 10.13]
1000 to 10000	Cn1c(=O)c2ccc(-c3ccc(N4CCNCC4)nc3)cc2n1Cc1ccccc1OC(F)F [Example 14.1]
< 1000	Cc1ccc(OC(F)F)c(Cn2c3cc(-c4cnc(N5CCN(C(=O)C(O)CN)[C@H](C)C5)nc4)ccc3c(=O)n2C)c1 (some centres unmarked) [Example 14.9]
1000 to 10000	Cn1c(=O)c2ccc(-c3cnc(N4CC(O)C4)nc3)cc2n1Cc1ccccc1OC(F)F [Example 2.9]
< 1000	CC(=O)N1CCN(c2ncc(-c3ccc4c(=O)n(C)n(Cc5nc(C)ccc5OC(F)F)c4c3)cn2)C[C@H]1C [Example 75, (R)-6-(2-(4-Acetyl-3-methylpiperazin-1-yl)pyrimidin-5-yl)-1-((3-(difluoromethoxy)-6-methylpyridin-2-yl)methyl)-2-methyl-1H-indazol-3(2H)-one]
< 1000	Cn1c(=O)c2ccc(-c3cnc(N4CCN5C(=O)NC[C@H]5C4)nc3)cc2n1Cc1ccccc1OC(F)F (single isomer, unassigned) [Example 7]
< 1000	CC(=O)N1CCN(c2ncc(-c3ccc4c(=O)n(C)n(Cc5nc(C)ccc5C(F)(F)F)c4c3)cn2)C[C@H]1C [Example 19.1]
< 1000	CC(c1ccccc1F)n1c2cc(-c3cnc(N4CCN(C(=O)CO)[C@H](C)C4)nc3)ccc2c(=O)n1C (some centres unmarked) [Example 28.3]
1000 to 10000	Cn1c(=O)c2ccc(-c3cnc(N4CCOCC4)nc3)cc2n1Cc1c(Cl)cccc1Cl [Example 8.1]
< 1000	C[C@H](N)C(=O)OCc1ccc(OC(F)F)c(Cn2c3cc(-c4cnc(N5CCN6C(=O)NC[C@@H]6C5)nc4)ccc3c(=O)n2C)c1 [Example 14.15]
1000 to 10000	Cn1c(=O)c2ccc(-c3ccc(N4CCOCC4)nc3)cc2n1Cc1ccccc1OC(F)F [Example 5.2]
1000 to 10000	CC(=O)NCc1ccc(OC(F)F)c(Cn2c3cc(-c4cnc(N5CCN(C(C)=O)[C@H](C)C5)nc4)ccc3c(=O)n2C)c1 [Example 27.1]
1000 to 10000	Cn1c(=O)c2ccc(-c3cnc(N4CCOCC4)nc3)cc2n1Cc1ncccc1Cl [Example 1.14]
< 1000	C[C@@H]1CN(c2ncc(-c3ccc4c(=O)n(C)n(Cc5ccccc5OC(F)F)c4c3)cn2)CCN1C(=O)CO [Example 10.6, (R)-1-(2-(difluoromethoxy)benzyl)-6-(2-(4-(2-hydroxyacetyl)-3-methylpiperazin-1-yl)pyrimidin-5-yl)-2-methyl-1H-indazol-3(2H)-one]
1000 to 10000	Cc1ccc(OC(F)F)c(Cn2c3cc(-c4cnc(N5CCC(C(N)=O)C5)nc4)ccc3c(=O)n2C)c1 (centres unmarked) [Example 20.1]

From patent US10160748B2 (AbbVie Inc., priority 2015, dated 2018)
